20 molecules from US11339171B2, “MDM2 inhibitors” (Gan & Lee Pharmaceuticals, priority 2017, dated 2022) can be followed below.

One experiment deals with T1, MDM2 (Homo sapiens, UniProt Q00987).
T1 construct: made in house
The experiment is described as follows: Inhibition test of MDM2-P53 (GST-MDM2, Biotin-P53, Anti-GST-Tb, SA-XL665). It is filed as binding. Put shortly:
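HTRF-type assay using 4 nM GST-MDM2 (final), Biotin-P53, SA-XL665 and anti-GST-Tb in PBS with 0.1% BSA, 5 mM DTT and 1 mM AEBSF. Compounds in 5-fold serial dilutions over twelve points; incubation 90 min at 25° C with shaking before plate-reader read-out.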

Experiment [1] has as its system human osteosarcoma cell line SJSA-1. The experiment is described as follows: Inhibition of proliferation of human osteosarcoma cell line SJSA-1 (DAPI staining, In Cell Analyzer). Particulars: for IC50: Homo sapiens, SJSA-1, 72 h, read-out: IC50 (nM), inhibitory activity on proliferation of human osteosarcoma cell line SJSA-1, SJSA-1, incubated 72 h.
[2] abbreviates: labels are Example numbers, the compounds with S-configuration are meant.

T1 sequence (Q00987 whole entry): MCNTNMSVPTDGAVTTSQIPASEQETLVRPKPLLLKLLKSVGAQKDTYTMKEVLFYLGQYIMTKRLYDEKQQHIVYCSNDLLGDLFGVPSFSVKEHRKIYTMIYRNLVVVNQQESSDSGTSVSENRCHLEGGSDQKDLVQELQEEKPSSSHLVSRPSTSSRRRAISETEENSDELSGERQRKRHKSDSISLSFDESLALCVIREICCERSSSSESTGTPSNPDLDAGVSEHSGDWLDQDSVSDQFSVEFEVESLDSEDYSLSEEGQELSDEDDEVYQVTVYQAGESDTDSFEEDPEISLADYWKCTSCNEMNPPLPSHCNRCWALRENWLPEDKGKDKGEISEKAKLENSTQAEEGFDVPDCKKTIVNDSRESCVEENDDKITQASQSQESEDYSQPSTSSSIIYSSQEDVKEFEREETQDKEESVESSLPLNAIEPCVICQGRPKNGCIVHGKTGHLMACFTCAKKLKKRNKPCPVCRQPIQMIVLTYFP

Turning to `CNC(=O)c1ccc(OC)c(-c2nc3c(n2C(C)C)[C@]2(C(=O)Nc4cc(Cl)ccc42)N(c2cc(Cl)ccc2C)C3=O)c1` [Example R-21, (R)-3-(6-chloro-5′-(5-chloro-2-methylphenyl)-3′-isopropyl-2,6′-dioxo-5′,6′-dihydro-3′H-spiro[dihydroindole-3,4′-pyrrolo[3,4-d]imidazole]-2′-yl)-4-methoxy-N-methylbenzamide], the IC50 against MDM2 was 223 nM; in experiment [1], 5230 nM.
Turning to `CCOc1ccccc1-c1nc2c(n1C(C)C)[C@@]1(C(=O)Nc3cc(Cl)ccc31)N(c1cc(Cl)ccc1C)C2=O` [Example S-35, (S)-6-chloro-5′-(5-chloro-2-methylphenyl)-2′-(2-ethoxyphenyl)-3′-isopropyl-3′H-spiro[dihydroindole-3,4′-pyrrolo[3,4-d]imidazole]-2,6′(5′H)-dione], the IC50 on MDM2 worked out at 23.4 nM; in experiment [1] it was 258 nM.
For `COc1cc(C(C)C)ccc1-c1nc2c(n1C(C)C)[C@]1(C(=O)Nc3cc(Cl)ccc31)N(c1cc(Cl)ccc1C)C2=O` [Example R-32, (R)-6-chloro-5′-(5-chloro-2-methylphenyl)-3′-isopropyl-2′-(4-isopropyl-2-methoxyphenyl)-3′H-spiro[dihydroindole-3,4′-pyrrolo[3,4-d]imidazole]-2,6′(5′H)-dione], in that order: 1100 nM and 8200 nM.
Take `Cc1ccc(Cl)cc1N1C(=O)c2nc(-c3ccccc3OC(F)(F)F)n(C(C)C)c2[C@]12C(=O)Nc1cc(Cl)ccc12` [Example R-31, (R)-6-chloro-5′-(5-chloro-2-methylphenyl)-3′-isopropyl-2′-(2-(trifluoromethoxy)phenyl)-3′H-spiro[dihydroindole-3,4′-pyrrolo[3,4-d]imidazole]-2,6′(5′H)-dione]: the IC50 against MDM2 was 1400 nM; in experiment [1], 3580 nM.
In the case of `COc1ccc(C(=O)N(C)C)cc1-c1nc2c(n1C(C)C)[C@@]1(C(=O)Nc3cc(Cl)ccc31)N(c1cc(Cl)ccc1C)C2=O` [Example S-22, (S)-3-(6-chloro-5′-(5-chloro-2-methylphenyl)-3′-isopropyl-2,6′-dioxo-5′,6′-dihydro-3′H-spiro[dihydroindole-3,4′-pyrrolo[3,4-d]imidazole]-2′-yl)-4-methoxy-N,N-dimethylbenzamide], the IC50 on MDM2 came to 1.1 nM; in experiment [1], 7.46 nM.
For `COc1ncc(-c2nc3c(n2C(C)C)[C@]2(C(=O)Nc4cc(Cl)ccc42)N(c2ccc(OC)c(Cl)c2)C3=O)c(OC)n1` [Example R-48, (R)-6-chloro-5′-(3-chloro-4-methoxyphenyl)-2′-(2,4-dimethoxypyrimidin-5-yl)-3′-isopropyl-3′H-spiro[dihydroindole-3,4′-pyrrolo[3,4-d]imidazole]-2,6′(5′H)-dione], in that order: 196 nM and 3630 nM.
Take `COc1cc(C(N)=O)ccc1-c1nc2c(n1C(C)C)[C@@]1(C(=O)Nc3cc(Cl)ccc31)N(c1cc(Cl)ccc1C)C2=O` [Example S-77, (S)-4-(6-chloro-5′-(5-chloro-2-methylphenyl)-3′-isopropyl-2,6′-dioxo-5′,6′-dihydro-3′H-spiro[dihydroindole-3,4′-pyrrolo[3,4-d]imidazole]-2′-yl)-3-methoxybenzamide]: the IC50 on MDM2 is 1.86 nM; in experiment [1] it was 535 nM.
For `COc1nc(C(C)C)ccc1-c1nc2c(n1C(C)C)[C@@]1(C(=O)Nc3cc(Cl)ccc31)N(c1cc(Cl)ccc1C)C2=O` [Example S-149, (S)-6-chloro-5′-(5-chloro-2-methylphenyl)-3′-isopropyl-2′-(6-isopropyl-2-methoxypyridin-3-yl)-3′H-spiro[dihydroindole-3,4′-pyrrolo[3,4-d]imidazole]-2,6′(5′H)-dione], in that order: 18.5 nM and 153 nM.
For `COc1cc(OCCF)ncc1-c1nc2c(n1C(C)C)[C@@]1(C(=O)Nc3cc(Cl)ccc31)N(c1cc(Cl)cnc1C)C2=O` [Example S-173, (S)-6-chloro-5′-(5-chloro-2-methylpyridin-3-yl)-2′-(6-(2-fluoroethoxy)-4-methoxypyridin-3-yl)-3′-isopropyl-3′H-spiro[dihydroindole-3,4′-pyrrolo[3,4-d]imidazole]-2,6′(5′H)-dione], in that order: 1.39 nM and 217 nM.
On to `COc1cc(C2CC2)ncc1-c1nc2c(n1C(C)C)[C@@]1(C(=O)Nc3cc(Cl)ccc31)N(c1cc(Cl)cnc1C)C2=O` [Example S-143, (S)-6-chloro-5′-(5-chloro-2-methylpyridin-3-yl)-2′-(6-cyclopropyl-4-methoxypyridin-3-yl)-3′-isopropyl-3′H-spiro[dihydroindole-3,4′-pyrrolo[3,4-d]imidazole]-2,6′(5′H)-dione], for which the IC50 was 1.1 nM against MDM2 and 24.9 nM in experiment [1].
With `COc1nc(N(C)C)ncc1-c1nc2c(n1C(C)C)C1(C(=O)Nc3cc(Cl)ccc31)N(c1cc(Cl)ccc1C)C2=O` (stereo not shown) [Example 82, 6-chloro-5′-(5-chloro-2-methylphenyl)-2′-(2-(dimethylamino)-4-methoxypyrimidin-5-yl)-3′-isopropyl-3′H-spiro[dihydroindole-3,4′-pyrrolo[3,4-d]imidazole]-2,6′(5′H)-dione], the “inhibitory effect on MDM2 compared with positive control compound HDM201” value against MDM2 (setting [2]) is “better”. Further, in experiment [1] (setting [2]), the “inhibitory effect on human osteosarcoma cell line SJSA-1 compared with positive control compound HDM201” value is on record as “better”.
Consider `COc1nc(OC(C)C)ncc1-c1nc2c(n1C(C)C)[C@]1(C(=O)Nc3cc(Cl)ccc31)N(c1cc(Cl)ccc1C)C2=O` [Example R-126, (R)-6-chloro-5′-(5-chloro-2-methylphenyl)-2′-(2-isopropoxy-4-methoxypyrimidin-5-yl)-3′-isopropyl-3′H-spiro[dihydroindole-3,4′-pyrrolo[3,4-d]imidazole]-2,6′(5′H)-dione], for which the IC50 against MDM2 was 193 nM; in experiment [1], 1590 nM.
As for `COc1nc(OCC(F)F)ncc1-c1nc2c(n1C(C)C)[C@]1(C(=O)Nc3cc(Cl)ccc31)N(c1cc(Cl)ccc1C)C2=O` [Example R-147, (R)-6-chloro-5′-(5-chloro-2-methylphenyl)-2′-(2-(2,2-difluoroethoxy)-4-methoxypyrimidin-5-yl)-3′-isopropyl-3′H-spiro[dihydroindole-3,4′-pyrrolo[3,4-d]imidazole]-2,6′(5′H)-dione], the IC50 at MDM2 was 119 nM; in experiment [1], 5740 nM.
With `COc1ncc(-c2nc3c(n2C(C)C)[C@@]2(C(=O)Nc4cc(Cl)ccc42)N(c2cc(Cl)ccc2OC)C3=O)c(OC)n1` [Example S-17, (S)-6-chloro-5′-(5-chloro-2-methoxyphenyl)-2′-(2,4-dimethoxypyrimidin-5-yl)-3′-isopropyl-3′H-spiro[dihydroindole-3,4′-pyrrolo[3,4-d]imidazole]-2,6′(5′H)-dione], the figures for the IC50 (against MDM2; in experiment [1]) were 3.75 nM and 201 nM, respectively.
Take `COc1ncc(-c2nc3c(n2C2CCC2)[C@@]2(C(=O)Nc4cc(Cl)ccc42)N(c2cc(Cl)ccc2C)C3=O)c(OC)n1` [Example S-41, (S)-6-chloro-5′-(5-chloro-2-methylphenyl)-3′-cyclobutyl-2′-(2,4-dimethoxypyrimidin-5-yl)-3′H-spiro[dihydroindole-3,4′-pyrrolo[3,4-d]imidazole]-2,6′(5′H)-dione]: the IC50 against MDM2 turned out to be 149 nM; in experiment [1], 1210 nM.
For `COc1cc(C#N)ccc1-c1nc2c(n1C(C)C)[C@]1(C(=O)Nc3cc(Cl)ccc31)N(c1cc(Cl)ccc1C)C2=O` [Example R-12, (R)-4-(6-chloro-5′-(5-chloro-2-methylphenyl)-3′-isopropyl-2,6′-dioxo-5′,6′-dihydro-3′H-spiro[dihydroindole-3,4′-pyrrolo[3,4-d]imidazole]-2′-yl)-3-methoxybenzonitrile], in that order: 368 nM and 2440 nM.
For `COc1cc(C#N)ccc1-c1nc2c(n1C(C)C)[C@@]1(C(=O)Nc3cc(Cl)ccc31)N(c1cccc(Cl)c1)C2=O` [Example S-128, (S)-4-(6-chloro-5′-(3-chlorophenyl)-3′-isopropyl-2,6′-dioxo-5′,6′-dihydro-3′H-spiro[dihydroindole-3,4′-pyrrolo[3,4-d]imidazole]-2′-yl)-3-methoxybenzonitrile], in that order: 1.09 nM and 145 nM.
For `COc1cc(N)c(C)cc1-c1nc2c(n1C(C)C)[C@]1(C(=O)Nc3cc(Cl)ccc31)N(c1cc(Cl)ccc1C)C2=O` [Example R-74, (R)-2′-(4-amino-2-methoxy-5-methylphenyl)-6-chloro-5′-(5-chloro-2-methylphenyl)-3′-isopropyl-3′H-spiro[dihydroindole-3,4′-pyrrolo[3,4-d]imidazole]-2,6′(5′H)-dione], in that order: 93.4 nM and 1840 nM.
Take `COc1cc(OC(F)(F)F)ccc1-c1nc2c(n1C(C)C)[C@]1(C(=O)Nc3cc(Cl)ccc31)N(c1cc(Cl)ccc1C)C2=O` [Example R-87, (R)-6-chloro-5′-(5-chloro-2-methylphenyl)-3′-isopropyl-2′-(2-methoxy-4-(trifluoromethoxy)phenyl)-3′H-spiro[dihydroindole-3,4′-pyrrolo[3,4-d]imidazole]-2,6′(5′H)-dione]: the figures for the IC50 (against MDM2; in experiment [1]) were 473 nM and 7350 nM, respectively.
For `COc1cc(OC(F)(F)F)ccc1-c1nc2c(n1C(C)C)[C@@]1(C(=O)Nc3cc(Cl)ccc31)N(c1cccc(Cl)c1)C2=O` [Example S-120, (S)-6-chloro-5′-(3-chlorophenyl)-3′-isopropyl-2′-(2-methoxy-4-(trifluoromethoxy)phenyl)-3′H-spiro[dihydroindole-3,4′-pyrrolo[3,4-d]imidazole]-2,6′(5′H)-dione], the IC50 at MDM2 worked out at 9.01 nM; in experiment [1], 364 nM.
